Calls of active or inactive are those of the source.
Experiments:
[1] = biological target: FAD-linked sulfhydryl oxidase ALR (Homo sapiens, UniProt P55789); test: inhibitors of human ALR sulfhydryl oxidase, dose response, biochemical, H2O2 detection, luminescence, cherry-pick (AID 493248)
[2] = tested on: Escherichia coli; test: microbe, parasite or virus in culture
[3] = biological target: T1, Cysteine protease ATG4B (Homo sapiens, UniProt Q9Y4P1); type: functional;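 further: Fluorescence-based dose-response confirmation assay measuring inhibition of ATG4B activity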
T1 sequence (Q9Y4P1 whole entry): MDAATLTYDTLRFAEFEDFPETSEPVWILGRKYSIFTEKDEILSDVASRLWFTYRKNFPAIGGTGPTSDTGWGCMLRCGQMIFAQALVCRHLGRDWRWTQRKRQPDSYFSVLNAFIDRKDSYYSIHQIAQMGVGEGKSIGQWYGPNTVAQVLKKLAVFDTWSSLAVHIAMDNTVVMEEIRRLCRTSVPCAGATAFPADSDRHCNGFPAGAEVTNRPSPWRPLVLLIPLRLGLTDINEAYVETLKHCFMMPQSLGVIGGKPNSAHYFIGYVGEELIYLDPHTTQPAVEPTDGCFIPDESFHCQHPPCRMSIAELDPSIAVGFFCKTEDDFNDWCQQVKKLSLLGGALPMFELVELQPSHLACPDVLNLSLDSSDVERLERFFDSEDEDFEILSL

[4] = biological target: Phospholipase A2 (Homo sapiens, UniProt P04054); type: functional;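 further: confirmatory dose-response counterscreen on phospholipase A2, testing hits that came from an ultra-high-throughput screen for ATG4B inhibitors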
[5] = tested on: Streptococcus sp. 'group A'; test: growth inhibition of control SK(-) GAS strain, dose response, counter-screen for streptokinase expression inhibitor project, luminescence, kanamycin, BacTiterGlo, confirmation (AID 1900); type: functional, organism-based
[6] = tested on: Streptococcus; test: Group A Streptococcus viability loss, dose response, counter-screen for streptokinase expression inhibitor project, luminescence, BacTiterGlo (AID 1915); type: functional, organism-based;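 further: potency for reduction of bacterial viability or growth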
[7] = biological target: 26S proteasome non-ATPase regulatory subunit 14 (Homo sapiens, UniProt O00487); test: inhibition of proteasome subunit RPN11 – biochemical, fluorescence polarization, uHTS hits, confirmation (AID 602368); type: functional
[8] = biological target: 72 kDa type IV collagenase (Homo sapiens, UniProt P08253); test: Dose Response validation of uHTS RPN11 inhibitor hits using a MMP-2 Fluorescence assay.; type: functional
[9] = biological target: Prothrombin (Bos taurus, UniProt P00735); test: thrombin inhibition, dose response, biochemical, fluorescence polarization, uHTS hits (AID 602369); type: functional
[10] = biological target: T2, Tyrosine-protein phosphatase non-receptor type 7 (Homo sapiens, UniProt P35236); type: functional
T2 sequence (P35236 whole entry): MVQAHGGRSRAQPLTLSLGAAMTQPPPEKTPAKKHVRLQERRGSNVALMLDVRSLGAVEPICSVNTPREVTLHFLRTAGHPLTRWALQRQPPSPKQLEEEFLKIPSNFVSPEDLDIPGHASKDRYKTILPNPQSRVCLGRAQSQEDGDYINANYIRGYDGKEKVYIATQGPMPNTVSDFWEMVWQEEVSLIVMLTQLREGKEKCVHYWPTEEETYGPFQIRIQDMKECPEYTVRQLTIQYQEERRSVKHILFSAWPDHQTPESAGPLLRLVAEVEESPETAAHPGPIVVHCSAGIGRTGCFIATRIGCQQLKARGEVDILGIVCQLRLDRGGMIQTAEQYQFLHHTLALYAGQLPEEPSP

[11] = biological target: Glyceraldehyde-3-phosphate dehydrogenase (Homo sapiens, UniProt P04406)
[12] = biological target: T3, Dual specificity protein phosphatase 6 (Rattus norvegicus, UniProt Q64346)
T3 sequence (Q64346 whole entry): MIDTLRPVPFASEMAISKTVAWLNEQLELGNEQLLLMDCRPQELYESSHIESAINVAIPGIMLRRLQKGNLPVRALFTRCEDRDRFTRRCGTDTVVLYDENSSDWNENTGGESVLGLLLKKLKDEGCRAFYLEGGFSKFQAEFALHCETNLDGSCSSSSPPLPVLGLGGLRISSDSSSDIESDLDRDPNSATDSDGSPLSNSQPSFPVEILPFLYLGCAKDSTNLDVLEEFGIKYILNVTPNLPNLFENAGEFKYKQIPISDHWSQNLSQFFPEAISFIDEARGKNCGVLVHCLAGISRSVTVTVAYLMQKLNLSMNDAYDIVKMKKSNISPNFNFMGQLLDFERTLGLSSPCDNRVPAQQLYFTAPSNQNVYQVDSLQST

[13] = biological target: T3, Dual specificity protein phosphatase 6; type: functional
[14] = biological target: Heat shock cognate 71 kDa protein (Homo sapiens, UniProt P11142); test: In Vitro Hsc70 Dose Response Fluorescence Polarization Assay. [Related pubchem assays: 1072 ]
[15] = biological target: Heat shock 70 kDa protein 1A (Homo sapiens, UniProt P0DMV8); test: Hsp70 inhibitors, SAR follow-up, biochemical, fluorescence polarization (AID 1072)
[16] = biological target: T3, Dual specificity protein phosphatase 6; test: MKP-3 phosphatase inhibitors, primary screen, biochemical, rat enzyme, in vitro (AID 425)
[17] = biological target: T4, Carboxy-terminal domain RNA polymerase II polypeptide A small phosphatase 1 (Homo sapiens, UniProt Q9GZU7); test: inhibitors of CTDSP1, concentration-response testing, biochemical assay, absorbance-based, actives from ultra-high-throughput screening (AID 540297); type: functional
T4 sequence (Q9GZU7 whole entry): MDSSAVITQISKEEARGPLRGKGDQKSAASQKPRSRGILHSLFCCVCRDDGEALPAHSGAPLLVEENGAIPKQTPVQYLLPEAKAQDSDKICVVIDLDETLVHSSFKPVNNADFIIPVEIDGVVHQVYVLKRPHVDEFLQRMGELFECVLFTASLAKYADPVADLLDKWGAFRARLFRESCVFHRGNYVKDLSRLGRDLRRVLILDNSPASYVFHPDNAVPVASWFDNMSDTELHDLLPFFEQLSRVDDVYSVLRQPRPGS

[18] = biological target: Tumor necrosis factor (Homo sapiens, UniProt P01375); test: TNFa-triggered NF-kB activation inhibitors, SAR follow-up, cell-based, revised (AID 2337); type: functional
[19] = THP-1 cell cytotoxicity, dose response, cytotoxicity control for non-replicating M. tuberculosis project (AID 489025); type: functional
[20] = biological target: T5, Nucleotide-binding oligomerization domain-containing protein 1 (Homo sapiens, UniProt Q9Y239); test: NOD1 signaling inhibitors, SAR follow-up, revised (AID 2333); type: functional
T5 sequence (Q9Y239 whole entry): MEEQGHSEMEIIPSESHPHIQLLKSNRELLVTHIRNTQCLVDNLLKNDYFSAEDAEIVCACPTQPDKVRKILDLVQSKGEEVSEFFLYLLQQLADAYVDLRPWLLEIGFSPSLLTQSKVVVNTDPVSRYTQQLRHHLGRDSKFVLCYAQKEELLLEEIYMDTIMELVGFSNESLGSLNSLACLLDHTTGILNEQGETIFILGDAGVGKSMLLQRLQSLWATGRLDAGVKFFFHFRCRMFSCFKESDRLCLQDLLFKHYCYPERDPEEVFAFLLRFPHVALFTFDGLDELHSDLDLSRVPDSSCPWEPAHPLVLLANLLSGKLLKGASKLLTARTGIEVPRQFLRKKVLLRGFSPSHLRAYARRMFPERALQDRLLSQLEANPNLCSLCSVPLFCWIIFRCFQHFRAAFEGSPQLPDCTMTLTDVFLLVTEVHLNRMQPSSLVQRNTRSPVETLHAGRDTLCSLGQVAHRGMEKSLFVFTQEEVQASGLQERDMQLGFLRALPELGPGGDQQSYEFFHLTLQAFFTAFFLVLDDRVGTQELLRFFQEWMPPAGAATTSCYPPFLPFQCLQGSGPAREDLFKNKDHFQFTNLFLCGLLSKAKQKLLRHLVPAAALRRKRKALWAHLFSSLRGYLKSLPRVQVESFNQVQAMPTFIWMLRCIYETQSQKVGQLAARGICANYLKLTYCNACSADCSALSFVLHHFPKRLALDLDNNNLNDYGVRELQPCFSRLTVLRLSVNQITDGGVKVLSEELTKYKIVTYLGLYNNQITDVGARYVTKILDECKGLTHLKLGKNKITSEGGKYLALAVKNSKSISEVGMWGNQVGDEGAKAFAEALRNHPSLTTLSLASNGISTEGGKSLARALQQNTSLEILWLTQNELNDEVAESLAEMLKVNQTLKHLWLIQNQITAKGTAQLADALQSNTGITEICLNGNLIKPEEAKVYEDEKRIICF

[21] = Vero E6 cell cytotoxicity, dose response, cytotoxicity control for non-replicating M. tuberculosis project, secondary assay (AID 492998); type: functional, VeroE6; conditions: Vero C1008
[22] = biological target: Nucleotide-binding oligomerization domain-containing protein 2 (Homo sapiens, UniProt Q9HC29); test: PubChem AID 2334; type: functional
[23] = cells; type: functional
[24] = tested on: HEK293; test: cells; conditions: Homo sapiens;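 further: cells exposed to compound for 14 hours overnight before viability readout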
[25] = biological target: Voltage-dependent T-type calcium channel subunit alpha-1H (Homo sapiens, UniProt O95180); type: functional;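 further: channel activity triggered by adding a high calcium stimulation buffer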
[26] = biological target: Cytochrome P450 2D6 (Homo sapiens, UniProt P10635);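 further: CYP2D6 member of a cytochrome P450 panel assay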
[27] = biological target: Dual specificity tyrosine-phosphorylation-regulated kinase 1A (Rattus norvegicus, UniProt Q63470); type: biochemical, Homo sapiens

Sequence of Phospholipase A2 (P04054 whole entry): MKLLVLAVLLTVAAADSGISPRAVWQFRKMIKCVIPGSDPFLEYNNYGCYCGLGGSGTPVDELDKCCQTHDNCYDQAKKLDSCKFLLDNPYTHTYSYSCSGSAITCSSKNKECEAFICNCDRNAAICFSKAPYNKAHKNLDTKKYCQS
Sequence of Glyceraldehyde-3-phosphate dehydrogenase (P04406 whole entry): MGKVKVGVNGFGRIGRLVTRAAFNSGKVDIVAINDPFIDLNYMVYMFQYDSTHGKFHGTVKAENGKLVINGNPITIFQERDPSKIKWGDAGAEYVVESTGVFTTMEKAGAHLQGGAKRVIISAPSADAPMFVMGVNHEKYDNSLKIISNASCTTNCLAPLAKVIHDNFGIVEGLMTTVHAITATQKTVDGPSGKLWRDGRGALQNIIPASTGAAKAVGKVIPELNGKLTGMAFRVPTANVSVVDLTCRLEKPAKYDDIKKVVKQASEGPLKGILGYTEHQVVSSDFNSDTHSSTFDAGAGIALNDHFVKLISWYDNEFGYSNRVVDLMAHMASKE
Sequence of Heat shock 70 kDa protein 1A (P0DMV8 whole entry): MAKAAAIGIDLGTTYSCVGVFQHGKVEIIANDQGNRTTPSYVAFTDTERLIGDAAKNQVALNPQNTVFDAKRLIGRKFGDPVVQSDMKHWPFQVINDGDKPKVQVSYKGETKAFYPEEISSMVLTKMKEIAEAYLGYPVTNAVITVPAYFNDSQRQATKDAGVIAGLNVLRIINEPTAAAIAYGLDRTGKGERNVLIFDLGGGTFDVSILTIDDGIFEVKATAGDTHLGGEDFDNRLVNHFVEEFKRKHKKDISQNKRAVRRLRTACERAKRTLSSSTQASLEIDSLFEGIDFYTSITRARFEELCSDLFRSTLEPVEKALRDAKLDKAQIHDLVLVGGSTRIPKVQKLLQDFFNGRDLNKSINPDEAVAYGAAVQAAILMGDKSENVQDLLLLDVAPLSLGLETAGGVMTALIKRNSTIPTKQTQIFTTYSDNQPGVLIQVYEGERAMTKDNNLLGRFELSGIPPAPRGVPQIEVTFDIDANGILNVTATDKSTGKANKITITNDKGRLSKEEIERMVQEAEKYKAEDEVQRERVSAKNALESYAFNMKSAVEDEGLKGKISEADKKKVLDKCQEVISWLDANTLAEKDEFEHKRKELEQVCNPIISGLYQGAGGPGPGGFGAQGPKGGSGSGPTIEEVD
Sequence of Nucleotide-binding oligomerization domain-containing protein 2 (Q9HC29 whole entry, the tested form may be a part): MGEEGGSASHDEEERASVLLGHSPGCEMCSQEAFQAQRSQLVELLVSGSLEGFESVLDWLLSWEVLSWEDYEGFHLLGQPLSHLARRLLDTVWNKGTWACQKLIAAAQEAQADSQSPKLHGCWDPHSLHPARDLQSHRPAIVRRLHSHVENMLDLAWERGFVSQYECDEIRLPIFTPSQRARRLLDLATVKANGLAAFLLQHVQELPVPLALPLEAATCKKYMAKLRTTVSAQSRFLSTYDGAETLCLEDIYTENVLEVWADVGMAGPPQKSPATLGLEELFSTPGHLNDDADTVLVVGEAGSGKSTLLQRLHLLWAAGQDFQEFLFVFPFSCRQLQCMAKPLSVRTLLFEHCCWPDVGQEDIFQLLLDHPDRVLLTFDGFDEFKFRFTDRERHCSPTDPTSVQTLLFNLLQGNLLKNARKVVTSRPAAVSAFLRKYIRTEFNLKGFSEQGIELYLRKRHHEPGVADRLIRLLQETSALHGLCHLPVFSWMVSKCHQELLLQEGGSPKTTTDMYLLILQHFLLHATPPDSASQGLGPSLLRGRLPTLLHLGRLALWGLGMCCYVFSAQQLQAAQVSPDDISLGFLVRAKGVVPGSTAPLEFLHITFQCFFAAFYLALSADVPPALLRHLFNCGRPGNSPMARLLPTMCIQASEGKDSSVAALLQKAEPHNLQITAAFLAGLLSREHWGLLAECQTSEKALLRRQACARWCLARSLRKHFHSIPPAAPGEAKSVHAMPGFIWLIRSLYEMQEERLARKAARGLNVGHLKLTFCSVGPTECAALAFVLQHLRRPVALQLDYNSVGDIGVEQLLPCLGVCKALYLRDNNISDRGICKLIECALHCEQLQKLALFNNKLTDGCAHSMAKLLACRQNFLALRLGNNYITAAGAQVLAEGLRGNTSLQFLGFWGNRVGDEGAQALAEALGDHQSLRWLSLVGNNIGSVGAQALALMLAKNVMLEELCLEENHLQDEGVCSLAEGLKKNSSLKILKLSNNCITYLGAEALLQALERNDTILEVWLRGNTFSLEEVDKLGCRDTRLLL
Sequence of Heat shock cognate 71 kDa protein (P11142 whole entry): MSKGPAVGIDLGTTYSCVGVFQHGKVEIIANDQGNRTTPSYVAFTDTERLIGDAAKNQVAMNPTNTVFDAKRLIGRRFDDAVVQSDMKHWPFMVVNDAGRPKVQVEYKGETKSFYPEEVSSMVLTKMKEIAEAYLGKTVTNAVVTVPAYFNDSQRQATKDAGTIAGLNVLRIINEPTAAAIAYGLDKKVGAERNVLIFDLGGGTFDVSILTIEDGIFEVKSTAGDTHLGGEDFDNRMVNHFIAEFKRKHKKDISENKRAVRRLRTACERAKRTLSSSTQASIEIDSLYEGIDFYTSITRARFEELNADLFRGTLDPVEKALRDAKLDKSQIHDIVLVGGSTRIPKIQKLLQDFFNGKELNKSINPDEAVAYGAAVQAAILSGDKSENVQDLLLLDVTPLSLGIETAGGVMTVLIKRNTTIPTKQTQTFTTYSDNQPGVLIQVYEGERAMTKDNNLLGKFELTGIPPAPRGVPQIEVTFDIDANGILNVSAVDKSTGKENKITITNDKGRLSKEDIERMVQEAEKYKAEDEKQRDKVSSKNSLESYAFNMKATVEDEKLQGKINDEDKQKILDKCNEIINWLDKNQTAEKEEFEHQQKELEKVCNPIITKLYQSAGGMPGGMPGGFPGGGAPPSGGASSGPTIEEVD
Sequence of Tumor necrosis factor (P01375 whole entry): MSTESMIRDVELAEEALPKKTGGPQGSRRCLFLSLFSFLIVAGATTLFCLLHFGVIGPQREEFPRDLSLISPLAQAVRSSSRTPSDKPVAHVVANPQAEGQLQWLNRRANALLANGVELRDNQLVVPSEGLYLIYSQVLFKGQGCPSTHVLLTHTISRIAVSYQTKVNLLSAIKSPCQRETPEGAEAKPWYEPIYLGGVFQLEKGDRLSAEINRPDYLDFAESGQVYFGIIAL
Sequence of Cytochrome P450 2D6 (P10635 whole entry): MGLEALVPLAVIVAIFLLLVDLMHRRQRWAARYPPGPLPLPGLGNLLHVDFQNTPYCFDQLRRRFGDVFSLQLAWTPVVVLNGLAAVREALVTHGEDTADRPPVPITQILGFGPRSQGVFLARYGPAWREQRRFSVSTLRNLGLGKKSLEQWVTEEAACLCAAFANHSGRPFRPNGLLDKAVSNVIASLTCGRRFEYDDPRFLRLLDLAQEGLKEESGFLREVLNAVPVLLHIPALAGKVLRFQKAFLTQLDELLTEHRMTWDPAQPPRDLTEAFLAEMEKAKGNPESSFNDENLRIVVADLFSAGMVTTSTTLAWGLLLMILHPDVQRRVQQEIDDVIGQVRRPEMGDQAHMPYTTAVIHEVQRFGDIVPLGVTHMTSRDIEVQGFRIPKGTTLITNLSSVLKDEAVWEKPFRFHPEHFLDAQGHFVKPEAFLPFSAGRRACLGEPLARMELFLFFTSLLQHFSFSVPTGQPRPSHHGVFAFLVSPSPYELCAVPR
Sequence of 72 kDa type IV collagenase (P08253 whole entry): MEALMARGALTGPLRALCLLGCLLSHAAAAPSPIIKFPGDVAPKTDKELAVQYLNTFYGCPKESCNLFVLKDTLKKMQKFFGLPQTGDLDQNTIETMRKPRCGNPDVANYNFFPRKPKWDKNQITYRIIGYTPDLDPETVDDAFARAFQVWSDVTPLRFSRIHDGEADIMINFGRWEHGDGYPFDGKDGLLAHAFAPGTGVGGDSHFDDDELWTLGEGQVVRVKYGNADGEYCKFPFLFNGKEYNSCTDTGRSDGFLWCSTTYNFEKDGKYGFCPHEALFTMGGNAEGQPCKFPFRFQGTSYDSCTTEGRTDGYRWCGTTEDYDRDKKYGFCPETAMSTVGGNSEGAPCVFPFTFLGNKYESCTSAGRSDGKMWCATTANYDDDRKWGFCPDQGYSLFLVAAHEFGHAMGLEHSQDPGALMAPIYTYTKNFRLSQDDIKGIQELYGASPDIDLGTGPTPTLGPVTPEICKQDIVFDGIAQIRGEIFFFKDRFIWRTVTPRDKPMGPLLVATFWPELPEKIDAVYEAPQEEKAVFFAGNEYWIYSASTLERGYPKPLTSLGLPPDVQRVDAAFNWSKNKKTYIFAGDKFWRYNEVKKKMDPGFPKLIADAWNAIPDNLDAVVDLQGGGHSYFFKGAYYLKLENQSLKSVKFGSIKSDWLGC
Sequence of 26S proteasome non-ATPase regulatory subunit 14 (O00487 whole entry): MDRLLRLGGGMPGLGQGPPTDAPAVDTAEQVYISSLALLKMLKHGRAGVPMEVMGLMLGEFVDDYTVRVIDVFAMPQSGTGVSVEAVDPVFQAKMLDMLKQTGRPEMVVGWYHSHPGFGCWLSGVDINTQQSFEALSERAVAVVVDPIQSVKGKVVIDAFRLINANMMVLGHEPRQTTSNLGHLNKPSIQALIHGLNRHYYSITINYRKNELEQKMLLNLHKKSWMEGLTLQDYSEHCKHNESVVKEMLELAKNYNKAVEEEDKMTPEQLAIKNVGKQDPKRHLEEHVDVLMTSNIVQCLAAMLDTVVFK
Sequence of FAD-linked sulfhydryl oxidase ALR (P55789 whole entry): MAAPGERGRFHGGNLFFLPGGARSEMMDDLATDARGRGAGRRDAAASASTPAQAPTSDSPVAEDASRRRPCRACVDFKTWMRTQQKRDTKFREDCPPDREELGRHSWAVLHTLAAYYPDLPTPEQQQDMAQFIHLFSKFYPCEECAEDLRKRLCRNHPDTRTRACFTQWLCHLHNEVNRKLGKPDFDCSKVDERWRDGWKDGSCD

With `O=C(c1cc(O)c(O)c([N+](=O)[O-])c1)c1ccccc1F` the AC50 [1] was 3.2 µM (active) and the AC50 [2] was 95 µM (active).
In the case of `Cc1cc(NCc2ccc(F)cc2Cl)n2nnnc2n1`, the IC50 [3] is reported as 15.7 µM (active) and the IC50 [4] is reported as 12.1 µM (active).
For `Oc1nc(Nc2ccc(Cl)cc2Cl)sc1/C=C1\C=Nc2ccccc21`, the EC50 [5] was 1.27 µM (active), the EC50 [6] was 2.61 µM (active) and the IC50 [3] was 2.64 µM (active). For the same compound, the IC50 [4] was 1.5 µM (active), the IC50 [7] was 36.5 µM (active) and the IC50 [8] was > 100 µM (inactive). For the same compound, the IC50 [9] was 38.3 µM (active).
For `CCOC(=O)C1Nc2c(O)cc(C)cc2C2C=CCC12` (configuration not stated), the IC50 [10] was > 100 µM (not active), the IC50 [11] was > 100 µM (not active) and the IC50 [12] was > 100 µM (inactive). The IC50 [13] was > 100 µM (inactive).
With `O=C(CSc1nnc2scc(-c3ccccc3)n12)Nc1nsc(-c2ccccc2)n1` the IC50 [10] was 12.8 µM (active), the IC50 [11] was 27.4 µM (active) and the IC50 [14] was > 100 µM (not active). For the same compound, the IC50 [15] was > 100 µM (not active), the IC50 [12] was 6.9 µM (active) and the IC50 [16] was 11 µM (active). For the same compound, the IC50 [13] was 9.41 µM (active) and the IC50 [17] was 6.59 µM (active).
In the case of `CCC(=O)Nc1nc2ccccc2n1Cc1ccccc1`, the IC50 [18] is reported as > 20 µM (inactive), the CC50 [19] is reported as > 40 µM (active) and the IC50 [20] is reported as > 20 µM (inactive). For the same compound, the CC50 [21] was > 20 µM (active), the IC50 [22] was > 20 µM (inactive) and the IC50 [23] was 6.75 µM (active). For the same compound, the IC50 [24] was > 20 µM (inactive).
With `O=C(Oc1ccc(-c2ccccc2)cc1)c1cccc2c1NC(C(=O)O)C1CC=CC21` (configuration not stated) the IC50 [10] was 5.62 µM (active), the IC50 [11] was > 100 µM (not active) and the IC50 [14] was > 100 µM (not active). The IC50 [15] was > 100 µM (not active), the IC50 [12] was 3.4 µM (active) and the IC50 [13] was 3.5 µM (active).
With `Cc1ccccc1NC(=O)/C(=C/c1ccccc1)c1ccccc1` the EC50 [25] was 9.09 µM (active), the IC50 [3] was 10.8 µM (active) and the IC50 [4] was 9.58 µM (active). The AC50 [26] was 14.1 µM (inconclusive).
With `COc1ccccc1C1CCN(c2cc(O)ccc2[N+](=O)[O-])CC1` the AC50 [27] was 4.38 µM (active).
With `CN(c1ccccc1)S(=O)(=O)c1cccc(NC(=O)CN2C(=O)NC3(CCCC3)C2=O)c1` the AC50 [2] was 40.1 µM (active).
For `O=C(Cc1ccccc1)Nc1nc2ccccc2n1Cc1ccc(Cl)cc1`, the IC50 [18] was > 20 µM (inactive), the IC50 [20] was > 20 µM (inactive) and the IC50 [22] was > 20 µM (inactive). The IC50 [24] was > 20 µM (inactive).
In the case of `Cc1cc(C)nc(SC(C)C(=O)N/N=C/c2cccs2)n1` (configuration not stated), the AC50 [2] is reported as 22.1 µM (active).

Reference: ChEMBL document CHEMBL1201862, “PubChem BioAssay data set” (2004)
